This is an account of results in US7087433B2, “7SK RNA regulated transcription” (The Regents of the University of California, priority 2002, dated 2006).

In series [1] the test system is 7SK/P-TEFb interaction. As to the kind of experiment: 7SK/P-TEFb interaction in nuclear extracts of treated F1C2 cells. Format: cell-based, human. The conditions noted are these: nuclear extract. The text has this: Certain agents that elicit SOS-like stress responses in mammalian cells can markedly enhance HIV-1 transcription in a manner analogous to prophage induction in Escherichia coli (6–8,20,21). […] In light of these observations, we investigated the effect of ultraviolet irradiation and actinomycin D on the 7SK/P-TEFb interaction in nuclear extracts of the treated F1C2 cells. […] Neither the level of total 7SK in the nuclear extract nor the CDK9/cyclin T1 interaction was affected. […] As for ultraviolet irradiation, 7SK was dissociated from P-TEFb as early as 15–30 min after treatment, long before any signs of apoptosis appeared. Thus, stress signals such as ultraviolet irradiation and actinomycin D can cause fast and efficient 7SK dissociation from P-TEFb, which explains their positive effects on HIV-1 transcription and Pol II phosphorylation.

Series [2] deals with T1, 7SK/P-TEFb interaction (Homo sapiens, UniProt P50750).
T1 construct: expressed in transfected cells; host or cells: F1C2 cell line (HeLa stably transfected with pBabe-puro-CDK9-Flag)
T1 sequence (P50750 whole entry): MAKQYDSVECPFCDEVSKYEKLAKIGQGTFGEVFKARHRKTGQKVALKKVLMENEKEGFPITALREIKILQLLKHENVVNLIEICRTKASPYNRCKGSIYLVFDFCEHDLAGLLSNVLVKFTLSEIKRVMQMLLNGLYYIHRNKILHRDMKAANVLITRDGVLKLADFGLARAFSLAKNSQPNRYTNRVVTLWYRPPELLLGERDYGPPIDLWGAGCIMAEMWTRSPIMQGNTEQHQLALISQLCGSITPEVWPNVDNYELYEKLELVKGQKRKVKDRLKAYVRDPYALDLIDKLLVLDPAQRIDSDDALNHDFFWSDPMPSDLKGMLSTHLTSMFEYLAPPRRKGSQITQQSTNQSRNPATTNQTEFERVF
T1 sequence (O60563 whole entry partner): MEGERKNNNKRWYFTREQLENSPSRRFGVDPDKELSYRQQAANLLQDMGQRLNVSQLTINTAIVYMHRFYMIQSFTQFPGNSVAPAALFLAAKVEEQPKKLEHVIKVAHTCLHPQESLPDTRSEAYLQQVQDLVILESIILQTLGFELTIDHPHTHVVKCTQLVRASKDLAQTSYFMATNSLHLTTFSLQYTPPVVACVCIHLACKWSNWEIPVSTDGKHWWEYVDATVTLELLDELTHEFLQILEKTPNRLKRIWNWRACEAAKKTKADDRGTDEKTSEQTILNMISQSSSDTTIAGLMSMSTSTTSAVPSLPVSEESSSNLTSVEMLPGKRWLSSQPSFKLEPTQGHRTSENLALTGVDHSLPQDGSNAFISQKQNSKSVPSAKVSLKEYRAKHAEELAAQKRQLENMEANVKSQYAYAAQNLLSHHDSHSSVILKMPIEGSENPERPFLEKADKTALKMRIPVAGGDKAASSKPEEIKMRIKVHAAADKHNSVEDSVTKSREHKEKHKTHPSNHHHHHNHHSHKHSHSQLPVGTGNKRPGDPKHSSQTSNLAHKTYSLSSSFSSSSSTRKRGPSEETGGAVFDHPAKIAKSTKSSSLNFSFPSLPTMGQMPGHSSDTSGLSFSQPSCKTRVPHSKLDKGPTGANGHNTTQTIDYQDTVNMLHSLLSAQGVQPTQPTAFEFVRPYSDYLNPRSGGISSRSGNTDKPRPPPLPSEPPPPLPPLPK
As to the kind of experiment: Direct incubation with nuclear extract, 7SK/P-TEFb interaction. It counts as binding.

A further series relates to HIV-1 transcription. The following applies: HeLa cells, low levels of drug; cited from earlier work.
A further series concerns CDK9/cyclin T1 kinase. As to the kind of experiment: CDK9-Flag kinase reaction with purified RNA Pol II as substrate. It counts as biochemical, human. The following applies: affinity-purified CDK9-Flag; degradation of associated 7SK. The procedure:
7SK could inhibit the activity of P-TEFb by suppressing the kinase activity of CDK9/cyclin T1. Affinity-purified CDK9-Flag and its associated factors were divided into two halves, incubated respectively with RNase A and DNase I, and tested in kinase reactions containing purified RNA Pol II as a substrate (9). […] This increase was significant given that only about 50% of the purified CDK9-Flag/cyclin T1 was associated with 7SK. […] To analyse more specifically the activity of P-TEFb bound to 7SK, this complex was affinity purified from HeLa nuclear extract using the 7SK antisense 2′-OMe RNA beads. Eluted with a displacement deoxyoligonucleotide (15), the P-TEFb bound to 7SK was divided into three equal portions, incubated respectively with RNase A, DNase I or buffer alone, and analysed in kinase reactions.

Starred links: 1 amine or outer side, 2 acyl side, 3 side chain; linkers in the order of their positions; H or OH if unused. Positions of bridges follow the written chain, without caps; N, C: chain ends. Non-standard residues stand in square brackets, D forms with d. Residues, ends and D or L forms follow the SMILES beside them. Chains are numbered I, II in the order given. Actinocin(9to1) = Cc1c2oc3c(C)ccc(C(=O)[*:1])c3nc-2c(C(=O)[*:2])c(N)c1=O; NMeV = CN[C@H](C(=O)O)C(C)C; Sar = CNCC(=O)O

`Cc1c2oc3c(C)ccc(C(=O)N[C@@H]4C(=O)N[C@H](C(C)C)C(=O)N5CCC[C@H]5C(=O)N(C)CC(=O)N(C)[C@@H](C(C)C)C(=O)O[C@@H]4C)c3nc-2c(C(=O)N[C@@H]2C(=O)N[C@H](C(C)C)C(=O)N3CCC[C@H]3C(=O)N(C)CC(=O)N(C)[C@@H](C(C)C)C(=O)O[C@@H]2C)c(N)c1=O` [actinomycin D] (I: T[dV]P[Sar][NMeV] / II: T[dV]P[Sar][NMeV]; ester I:1-I:C, II:1-II:C; linker I:N-II:N via Actinocin(9to1)): the “amount of 7SK associated with affinity-purified CDK9-Flag” value with 7SK/P-TEFb interaction [1] is on record as “significantly reduced the amount of 7SK associated with the affinity-purified CDK9-Flag”. In addition, the 7SK/P-TEFb interaction entry at 7SK/P-TEFb interaction [2] is reported as “did not disrupt the 7SK/P-TEFb interaction”. For the same molecule, the HIV-1 transcription entry in the series with HIV-1 transcription is reported as “enhances HIV-1 transcription to levels similar to those obtained by Tat”.

B1: RNase A: ribonuclease used to degrade the CDK9-Flag-associated 7SK (protein, UniProt P61823 27-150, looked up)
Ribonuclease pancreatic: KETAAAKFERQHMDSSTSAASSSNYCNQMMKSRNLTKDRCKPVNTFVHESLADVQAVCSQKNVACKNGQTNCYQSYSTMSITDCRETGSSKYPNCAYKTTQANKHIIVACEGNPYVPVHFDASV
In the case of B1, the “increase of kinase activity of CDK9-Flag (autophosphorylation and phosphorylation of Pol II)” value with CDK9/cyclin T1 kinase is listed as 3-4 fold.
